Source: patent US20250084080A1, “CRYSTALLINE AND SALT FORMS OF AN NLRP3 INHIBITOR” (BioAge Labs, Inc., priority 2023, published 2025)

What was measured:
Format in all cases: physicochemical
[1] = Bulk stability (solid state, 1 week; HPLC, XRPD, IC, color); design: key to CL (color): A: no change of color; B: slight discoloration; C: medium discoloration; D: strong discoloration; settings: for Bulk (HPLC) Purity / Bulk (XRPD) / CL (color) / Stoichiometry by IC (Free form:HCl = 1:x): Solid state
Procedure: Bulk stability of free form Pattern B was evaluated at 25° C./92.5% RH in an open container, at 40° C./75% RH in an open container and at 60° C. in a tight container over 1 week.

[2] = Solubility at 37° C. in buffers and biorelevant media, XRPD of residual solid; settings: for solubility at 2 h / solubility at 24 h: thermodynamic from solid
Procedure: Solubility of BAL-0748 free form Pattern B was investigated in pH 1.2 HCl buffer, pH 4.5 50 mM acetate buffer, pH 6.8 50 mM phosphate buffer, water, pH 1.6 FaSSGF, pH 6.5 FaSSIF-v1, pH 5.0 FeSSIF-v1 and 2% HPMC+1% Pluronic F68 in pH 4.5 50 mM acetate buffer at 37° C. for 2 h and 24 h. Residual solids after the solubility test were analyzed by XRPD.
Solubility of the free form Pattern A, the HCl salt Pattern A, the phosphate salt Pattern A, and the sodium salt Pattern A was measured in pH 1.2 HCl buffer, pH 4.5 acetate buffer (50 mM), pH 6.8 phosphate buffer (50 mM), water, pH 1.6 FaSSGF, pH 6.5 FaSSIF-v1, pH 5.0 FeSSIF-v1, and 2% HPMC+1% Pluronic F68 in pH 4.5 acetate buffer (50 mM) at 37° C. for 2 hours and 24 hours.
10.4 mg of the free form Pattern A, 10.0 mg of the free form Pattern B, 10.8 mg of the HCl salt Pattern A, 12.2 mg of the phosphate salt Pattern A, or 10.5 mg of the sodium salt Pattern A was weighed into a 20 mL glass vial, respectively. 5 mL of solubility medium was added. The salt amount used was equivalent to 10 mg anhydrous free form. Obtained suspensions were stirred at 37° C. at 400 rpm and sampled at 2 hours and at 24 hours. The samples were centrifuged at 37° C. at 14,000 rpm for 5 min. Supernatants were analyzed by HPLC and PH meter for solubility and pH value, respectively. Residual solids (wet cakes) from the 24 hours samples were also characterized by XRPD to determine physical form.

[3] = Hygroscopicity by dynamic vapor sorption (DVS) at 25° C.; settings: for Desorp. (%) / Sorp. (%): DVS 25° C.
Procedure: Dynamic vapor sorption (DVS) was performed on an Intrinsic, Advantage or Adventure with an oven temperature of 25° C. using water as a solvent. The sample mass was about 5-10 mg using the following method: • Cycle: 40-0-95-0-40% RH • Stage Step: 10% • Equilibrium: 0.002 dm/dt (%/min) • Minimum dm/dt stability duration: 60 min • Maximum dm/dt stage time: 360 min. Hygroscopicity of free form Pattern B was evaluated by dynamic vapor sorption (DVS) test at 25° C. […] It absorbed about 0.8% water at 80% RH at 25° C.

[4] = 25° C./92.5% RH open, 40° C./75% RH open, 60° C. tight container
[5] = aqueous buffer, pH 4.5 acetate buffer (50 mM), 37° C.
[6] = aqueous buffer, pH 6.8 phosphate buffer (50 mM), 37° C.
[7] = aqueous with cosolvent or surfactant or cyclodextrin, 2% HPMC + 1% Pluronic F68 in pH 4.5 acetate buffer (50 mM), 37° C.
[8] = fassgf or other biorelevant, FaSSGF, pH 1.6, 37° C.
[9] = simulated gastric fluid, pH 1.2 HCl buffer, 37° C.

Compound: CCOc1cc(C(=O)N(C)Cc2cnc(CO)c3cn[nH]c23)ccc1-c1cc(F)cc(F)c1.Cl [HCl salt Pattern A, 2-ethoxy-3′,5′-difluoro-N-((4-(hydroxymethyl)-1H-pyrazolo[4,3-c]pyridin-7-yl)methyl)-N-methyl-[1,1′-biphenyl]-4-carboxamide hydrochloric acid salt]
- Bulk stability, chemical and physical [1, 4]: chemically and physically stable
- Degradation by HPLC [1, 4]: no obvious degradation
- Form change by XRPD [1, 4]: no form change
- Bulk (HPLC) Purity ([1]; 25° C./92.5% RH, open): 99.1%
- Bulk (XRPD) ([1]; 25° C./92.5% RH, open): No form change
- CL (color) ([1]; 25° C./92.5% RH, open): A
- Stoichiometry by IC (Free form:HCl = 1:x) ([1]; 25° C./92.5% RH, open): 0.97
- Bulk (HPLC) Purity ([1]; 40° C./75% RH, open): 98.9%
- Bulk (XRPD) ([1]; 40° C./75% RH, open): No form change
- CL (color) ([1]; 40° C./75% RH, open): A
- Stoichiometry by IC (Free form:HCl = 1:x) ([1]; 40° C./75% RH, open): 0.99
- Bulk (HPLC) Purity ([1]; 60° C., closed): 98.9%
- Bulk (XRPD) ([1]; 60° C., closed): No form change
- CL (color) ([1]; 60° C., closed): A
- Stoichiometry by IC (Free form:HCl = 1:x) ([1]; 60° C., closed): 0.97
- pH of supernatant at 24 h ([2]; 2% HPMC + 1% Pluronic F68 in pH 4.5 acetate buffer (50 mM), 37° C.): (4.4)
- Solubility compared with the free form Pattern A ([2]; 2% HPMC+1% Pluronic F68 in acetate buffer (pH 4.5)): comparable solubility
- pH of supernatant at 24 h ([2]; FaSSGF, pH 1.6, 37° C.): (1.5)
- pH of supernatant at 24 h ([2]; FaSSIF-v1, pH 6.5, 37° C.): (6.3)
- pH of supernatant at 24 h ([2]; FeSSIF-v1, pH 5.0, 37° C.): (4.9)
- pH of supernatant at 24 h ([2]; Water, 37° C.): (2.5)
- solubility at 2 h [2, 5]: 14.4 µg/mL
- solubility at 24 h [2, 5]: 10 µg/mL
- solubility at 2 h [2, 6]: 3.3 µg/mL
- solubility at 24 h [2, 6]: 2.3 µg/mL
- solubility at 2 h [2, 7]: 29.5 µg/mL
- solubility at 24 h [2, 7]: 26.7 µg/mL
- solubility at 2 h [2, 8]: 556 µg/mL
- solubility at 24 h [2, 8]: 522 µg/mL
- pH of supernatant at 24 h ([2]; pH 1.2 HCl buffer, 37° C.): (1.2)
- pH of supernatant at 24 h ([2]; pH 4.5 acetate buffer (50 mM), 37° C.): (4.3)
- Higher solubility compared with the free form Pattern A ([2]; pH 5.0 FeSSIF-v1, 2 h): 1 fold
- pH of supernatant at 24 h ([2]; pH 6.8 phosphate buffer (50 mM), 37° C.): (6.7)
- Solubility compared with the free form Pattern A ([2]; pure water): obviously higher solubility
- solubility at 2 h [2, 9]: 362 µg/mL
- solubility at 24 h [2, 9]: 277 µg/mL
- solubility at 2 h ([2]; FaSSIF-v1, pH 6.5, 37° C.): 11.8 µg/mL
- solubility at 24 h ([2]; FaSSIF-v1, pH 6.5, 37° C.): 8.4 µg/mL
- solubility at 2 h ([2]; FeSSIF-v1, pH 5.0, 37° C.): 238 µg/mL
- solubility at 24 h ([2]; FeSSIF-v1, pH 5.0, 37° C.): 151 µg/mL
- solubility at 2 h ([2]; Water, 37° C.): 568 µg/mL
- solubility at 24 h ([2]; Water, 37° C.): 504 µg/mL
- Desorp. (%) ([3]; 0% RH, 1st desorption): 0.51%
- Sorp. (%) ([3]; 0% RH, 1st sorption): 0.51%
- Desorp. (%) ([3]; 0% RH, 2nd desorption): 0.15%
- Sorp. (%) ([3]; 0% RH, 2nd sorption): 0.15%
- Desorp. (%) ([3]; 10% RH, 1st desorption): 0.61%
- Sorp. (%) ([3]; 10% RH, 1st sorption): 0.61%
- Desorp. (%) ([3]; 10% RH, 2nd desorption): 0.24%
- Sorp. (%) ([3]; 10% RH, 2nd sorption): 0.20%
- Desorp. (%) ([3]; 20% RH, 1st desorption): 0.65%
- Sorp. (%) ([3]; 20% RH, 1st sorption): 0.68%
- Desorp. (%) ([3]; 20% RH, 2nd desorption): 0.28%
- Sorp. (%) ([3]; 20% RH, 2nd sorption): 0.24%
- Desorp. (%) ([3]; 30% RH, 1st desorption): 0.69%
- Sorp. (%) ([3]; 30% RH, 1st sorption): 0.78%
- Desorp. (%) ([3]; 30% RH, 2nd desorption): 0.35%
- Sorp. (%) ([3]; 30% RH, 2nd sorption): 0.27%
- Desorp. (%) ([3]; 40% RH, 1st desorption): 0.72%
- Sorp. (%) ([3]; 40% RH, 1st sorption): 0.75%
- Desorp. (%) ([3]; 40% RH, 2nd desorption): 0.42%
- Sorp. (%) ([3]; 40% RH, 2nd sorption): 0.29%
- Sorp. (%) ([3]; 50% RH, 1st sorption): 0.80%
- Desorp. (%) ([3]; 50% RH, 2nd desorption): 0.54%
- Sorp. (%) ([3]; 60% RH, 1st sorption): 0.85%
- Desorp. (%) ([3]; 60% RH, 2nd desorption): 0.68%
- Sorp. (%) ([3]; 70% RH, 1st sorption): 0.96%
- Desorp. (%) ([3]; 70% RH, 2nd desorption): 0.84%
- Sorp. (%) ([3]; 80% RH, 1st sorption): 1.00%
- Desorp. (%) ([3]; 80% RH, 2nd desorption): 1.07%
- Sorp. (%) ([3]; 90% RH, 1st sorption): 1.37%
- Desorp. (%) ([3]; 90% RH, 2nd desorption): 1.54%
- Sorp. (%) ([3]; 95% RH, 1st sorption): 2.20%
- Desorp. (%) ([3]; 95% RH, 2nd desorption): 2.20%
- XRPD after DVS test ([3]; DVS at 25° C.): No form change
- Water absorbed at 80% RH ([3]; DVS at 25° C., 80% RH): It absorbed 1.0%
